Test [1] addresses T1, human recombinant serotonin (5-Hydroxytryptamine) 5-HT2C receptor (Homo sapiens, UniProt P28335).
T1 construct: expressed in transfected cells; host or cells: Chinese hamster ovary (CHO-K1) cells
T1 sequence (P28335 33-458): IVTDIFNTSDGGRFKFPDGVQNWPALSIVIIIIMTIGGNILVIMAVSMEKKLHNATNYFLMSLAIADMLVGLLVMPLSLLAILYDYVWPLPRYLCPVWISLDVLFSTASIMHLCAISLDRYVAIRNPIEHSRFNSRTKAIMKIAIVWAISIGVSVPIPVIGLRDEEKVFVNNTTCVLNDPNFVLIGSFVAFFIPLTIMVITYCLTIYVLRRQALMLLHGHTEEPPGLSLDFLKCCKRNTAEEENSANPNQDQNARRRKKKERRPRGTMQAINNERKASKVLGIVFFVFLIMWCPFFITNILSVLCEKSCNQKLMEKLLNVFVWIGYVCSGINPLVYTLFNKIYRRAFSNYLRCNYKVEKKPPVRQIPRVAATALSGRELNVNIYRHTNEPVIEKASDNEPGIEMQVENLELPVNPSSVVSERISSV
Briefly: Serotonin 5-HT2C radioligand binding ([3H]Mesulergine). Particulars: compound at 0.1 μM; read-out: Inhibition of ligand binding, Serotonin 5-HT2C (percent inhibition of specific binding). The method, then: Compounds of the invention were incubated with 1 nM [^3H]Mesulergine for 60 min. at 25° C. Non-specific binding was estimated in the presence of 1 μM Mianserin. Receptor proteins were filtered and washed, the filters were then counted to determine [^3H]Mesulergine specifically bound. Compounds were screened at 1 μM or lower, using 1% DMSO as vehicle. Biochemical assay results are presented as the percent inhibition of specific binding in Table 10.

Test [2] has as its target T2, human recombinant serotonin (5-Hydroxytryptamine) 5-HT2A receptor (Homo sapiens, UniProt P28223).
T2 construct: expressed in transfected cells; host or cells: Chinese hamster ovary (CHO-K1) cells
Briefly: Serotonin 5-HT2A radioligand binding ([3H]Ketanserin). Particulars: read-out: Inhibition of ligand binding, Serotonin 5-HT2A (percent inhibition of specific binding), compound at 0.1 μM. The method, then:
Compounds of the invention were incubated with 0.5 nM [^3H]Ketanserin for 60 min. at 25° C. Non-specific binding was estimated in the presence of 1 μM Mianserin. Receptor proteins were filtered and washed, the filters were then counted to determine [^3H]Ketanserin specifically bound.

In test [3] the target is T3, human recombinant serotonin (5-Hydroxytryptamine) 5-HT6 receptor (Homo sapiens, UniProt P50406).
T3 construct: expressed in transfected cells; host or cells: human HeLa cells
Description: Serotonin 5-HT6 radioligand binding ([3H]LSD). As to conditions: compound at 0.1 μM; read-out: Inhibition of ligand binding, Serotonin 5-HT6 (percent inhibition of specific binding). The method, then:
Compounds of the invention were incubated with 1.5 nM [3H]Lysergic acid diethylamide (LSD) for 120 min. at 37° C. […] Receptor proteins were filtered and washed, the filters were then counted to determine [3H]LSD specifically bound. Compounds were screened at 1 μM or lower, using 1% DMSO as vehicle. Biochemical assay results are presented as the percent inhibition of specific binding in Table 10.

The target of another test is histamine receptor H1 (Homo sapiens, UniProt P35367). Description: Histamine H1 radioligand binding ([3H]Pyrilamine). Particulars: read-out: Histamine Binding (1 μM) H1, percent inhibition of specific binding, 1 μM. Summed up:
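Values are percent inhibition of specific [3H]pyrilamine (1.2 nM) binding with compounds at ≤1 μM (1% DMSO vehicle); 180 min incubation at 25 °C, pH 7.4 Tris buffer, on CHO-expressed human H1 receptor; 1 μM pyrilamine defined nonspecific binding, bound ligand counted after filtration.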

Test [4] has as its target human recombinant serotonin (5-Hydroxytryptamine) 5-HT7 receptor (Homo sapiens, UniProt P34969). Briefly: Serotonin 5-HT7 radioligand binding ([3H]LSD). Particulars: compound at 0.1 μM; read-out: Inhibition of ligand binding, Serotonin 5-HT7 (percent inhibition of specific binding). The source says:
Receptor proteins were filtered and washed, the filters were then counted to determine [^3H]LSD specifically bound.

Test [5] has as its target human dopamine D2L receptor (Homo sapiens, UniProt P14416). Description: Dopamine D2L radioligand binding ([3H]Spiperone). Particulars: percent inhibition of specific binding; compound at 1 μM; read-out: Inhibition of ligand binding, Dopamine D2L. The text has this: Non-specific binding was estimated in the presence of […] Haloperidol. Receptor proteins were filtered and washed, the filters were then counted to determine [^3H]Spiperone specifically bound. […] Biochemical assay results are presented as the percent inhibition of specific binding in Table 9.

For orientation: inhibition means the share of the control response that was lost under treatment.

Chain of human recombinant serotonin (5-Hydroxytryptamine) 5-HT7 receptor (P34969 whole entry): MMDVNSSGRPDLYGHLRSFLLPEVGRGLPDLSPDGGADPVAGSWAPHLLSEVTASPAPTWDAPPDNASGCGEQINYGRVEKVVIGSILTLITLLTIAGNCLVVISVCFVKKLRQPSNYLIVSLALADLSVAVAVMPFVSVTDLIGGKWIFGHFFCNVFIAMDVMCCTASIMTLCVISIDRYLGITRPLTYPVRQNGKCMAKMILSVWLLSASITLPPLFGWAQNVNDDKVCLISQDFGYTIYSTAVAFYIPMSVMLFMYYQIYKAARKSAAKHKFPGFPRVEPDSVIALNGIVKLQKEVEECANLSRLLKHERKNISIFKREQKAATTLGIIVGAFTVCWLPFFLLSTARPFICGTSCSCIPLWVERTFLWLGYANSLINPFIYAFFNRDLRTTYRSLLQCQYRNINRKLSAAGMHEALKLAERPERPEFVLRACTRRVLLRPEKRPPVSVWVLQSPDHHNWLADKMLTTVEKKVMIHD
Chain of human dopamine D2L receptor (P14416 whole entry): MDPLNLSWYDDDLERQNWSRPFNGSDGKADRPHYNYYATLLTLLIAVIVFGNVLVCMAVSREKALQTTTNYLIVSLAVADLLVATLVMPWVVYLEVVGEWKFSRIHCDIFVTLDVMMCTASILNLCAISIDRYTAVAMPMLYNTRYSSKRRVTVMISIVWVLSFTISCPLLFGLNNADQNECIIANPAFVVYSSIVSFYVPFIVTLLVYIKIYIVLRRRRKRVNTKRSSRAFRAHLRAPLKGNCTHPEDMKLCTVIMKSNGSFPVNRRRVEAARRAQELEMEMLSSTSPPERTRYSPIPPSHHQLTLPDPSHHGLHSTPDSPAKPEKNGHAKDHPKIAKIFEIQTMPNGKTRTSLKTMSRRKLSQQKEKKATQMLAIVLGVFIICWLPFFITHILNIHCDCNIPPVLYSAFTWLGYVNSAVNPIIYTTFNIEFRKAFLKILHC
T3 sequence (P50406 whole entry): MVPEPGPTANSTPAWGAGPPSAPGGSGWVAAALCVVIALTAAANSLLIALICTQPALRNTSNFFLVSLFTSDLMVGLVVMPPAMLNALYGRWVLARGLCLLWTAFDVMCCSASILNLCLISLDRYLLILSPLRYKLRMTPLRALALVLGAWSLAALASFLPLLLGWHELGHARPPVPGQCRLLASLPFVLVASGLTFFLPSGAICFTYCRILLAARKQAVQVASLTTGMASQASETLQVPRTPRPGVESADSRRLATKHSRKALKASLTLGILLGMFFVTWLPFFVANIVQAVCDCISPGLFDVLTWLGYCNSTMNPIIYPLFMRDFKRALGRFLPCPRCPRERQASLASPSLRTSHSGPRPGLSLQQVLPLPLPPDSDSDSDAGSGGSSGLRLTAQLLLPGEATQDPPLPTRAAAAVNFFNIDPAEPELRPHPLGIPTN
Chain of histamine receptor H1 (P35367 whole entry): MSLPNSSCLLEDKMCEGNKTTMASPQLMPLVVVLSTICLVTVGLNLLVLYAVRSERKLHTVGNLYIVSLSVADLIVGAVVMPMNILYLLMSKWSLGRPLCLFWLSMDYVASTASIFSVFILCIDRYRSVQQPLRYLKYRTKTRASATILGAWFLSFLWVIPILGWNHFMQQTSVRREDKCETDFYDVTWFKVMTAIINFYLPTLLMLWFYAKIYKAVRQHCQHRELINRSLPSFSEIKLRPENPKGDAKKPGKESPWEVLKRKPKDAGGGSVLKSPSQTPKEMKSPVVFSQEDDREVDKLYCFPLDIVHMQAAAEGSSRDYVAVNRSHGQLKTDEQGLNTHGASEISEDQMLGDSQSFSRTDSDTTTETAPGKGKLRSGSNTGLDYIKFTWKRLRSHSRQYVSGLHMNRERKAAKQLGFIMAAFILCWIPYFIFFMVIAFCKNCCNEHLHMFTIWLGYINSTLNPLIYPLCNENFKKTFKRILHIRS
T2 sequence (P28223 whole entry): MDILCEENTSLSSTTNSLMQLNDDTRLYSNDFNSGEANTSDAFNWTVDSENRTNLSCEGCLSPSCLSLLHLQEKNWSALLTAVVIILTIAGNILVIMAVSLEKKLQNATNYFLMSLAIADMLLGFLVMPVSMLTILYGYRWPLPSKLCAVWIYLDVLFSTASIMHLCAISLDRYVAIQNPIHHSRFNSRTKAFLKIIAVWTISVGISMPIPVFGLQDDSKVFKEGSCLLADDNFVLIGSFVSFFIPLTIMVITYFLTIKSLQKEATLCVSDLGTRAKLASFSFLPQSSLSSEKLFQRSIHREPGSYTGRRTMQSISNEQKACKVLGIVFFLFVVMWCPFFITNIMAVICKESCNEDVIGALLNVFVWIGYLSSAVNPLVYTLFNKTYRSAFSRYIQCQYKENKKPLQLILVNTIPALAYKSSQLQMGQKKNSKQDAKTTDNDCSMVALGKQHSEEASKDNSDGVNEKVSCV

For the molecule `C/C(=C\n1c2c(c3cc(C(C)C)ccc31)CN(C)CC2)c1ccncc1` [Compound 267, (E)-8-isopropyl-2-methyl-5-(2-(pyridin-4-yl)prop-1-enyl)-2,3,4,5-tetrahydro-1H-pyrido[4,3-b]indole], the inhibition at 0.1 µM in test [1] was found to be 54%; in test [2], 66%; in test [3], 87%; in test [4], 85%. The results for the inhibition at 1 µM (on histamine receptor H1; in test [5]) were 6% and 85%, respectively.

Take `Cc1ccc2c(c1)c1c(n2CC(O)(c2ccncc2)C(C)C)CCN(C)C1` (stereo not drawn) [Compound 194, 1-(2,8-dimethyl-3,4-dihydro-1H-pyrido[4,3-b]indol-5(2H)-yl)-3-methyl-2-(pyridin-4-yl)butan-2-ol]: the inhibition at 0.1 µM in test [1] stood at 47%; in test [2] it was 71%; in test [3] it was 7%; in test [4], 16%. The inhibition at 1 µM on histamine receptor H1 came out at 9%; in test [5], 12%.

For the molecule `COc1ccc([C@](C)(O)Cn2c3c(c4cc(C)ccc42)CN(C)CC3)cc1` [Compound 191, 1-(2,8-dimethyl-3,4-dihydro-1H-pyrido[4,3-b]indol-5(2H)-yl)-2-(4-methoxyphenyl)propan-2-ol], the inhibition at 0.1 µM in test [1] came to 94%; in test [2] it was 98%; in test [3], 45%; in test [4], 69%. Besides, the inhibition at 1 µM on histamine receptor H1 came to 23%; in test [5], 15%.

Turning to `C/C(=C\n1c2c(c3cc(C(F)(F)F)ccc31)CN(C)CC2)c1ccncc1` [Compound 249, (E)-2-methyl-5-(2-(pyridin-4-yl)prop-1-enyl)-8-(trifluoromethyl)-2,3,4,5-tetrahydro-1H-pyrido[4,3-b]indole], the inhibition at 0.1 µM came out at 60% in test [1], 90% in test [2], 98% in test [3] and 70% in test [4]. The inhibition at 1 µM was found to be 48% at histamine receptor H1 and 93% in test [5].

Turning to `C/C(=C\n1c2c(c3cc(C)ccc31)CN(C)CC2)c1ccc(F)cc1F` [Compound 276, (E)-5-(2-(2,4-difluorophenyl)prop-1-enyl)-2,8-dimethyl-2,3,4,5-tetrahydro-1H-pyrido[4,3-b]indole], the inhibition at 0.1 µM in test [1] stood at 96%; in test [2], 99%; in test [3], 81%; in test [4] it was 86%. Moreover, the inhibition at 1 µM on histamine receptor H1 came out at 63%; in test [5], 82%.

Regarding `Cc1ccc2c(c1)c1c(n2/C=C(/c2ccncc2)C(C)(C)C)CCN(C)C1` [Compound 280, (E)-5-(3,3-dimethyl-2-(pyridin-4-yl)but-1-enyl)-2,8-dimethyl-2,3,4,5-tetrahydro-1H-pyrido[4,3-b]indole], the inhibition at 0.1 µM came to 86% in test [1], 83% in test [2], 56% in test [3] and 20% in test [4]. The inhibition at 1 µM on histamine receptor H1 was 12%; in test [5], 52%.

Regarding `C/C(=C\n1c2c(c3cc(F)c(F)cc31)CN(C)CC2)c1ccc(C)nc1` [Compound 255, (E)-7,8-difluoro-2-methyl-5-(2-(6-methylpyridin-3-yl)prop-1-enyl)-2,3,4,5-tetrahydro-1H-pyrido[4,3-b]indole], the inhibition at 0.1 µM in test [1] turned out to be 69%; in test [2], 81%; in test [3], 4%; in test [4], 54%. Moreover, the inhibition at 1 µM on histamine receptor H1 came to 11%; in test [5] it was 29%.

For `C/C(=C\n1c2c(c3cc(C(F)(F)F)ccc31)CN(C)CC2)c1ccc(F)cc1` [Compound 268, (E)-5-(2-(4-fluorophenyl)prop-1-enyl)-2-methyl-8-(trifluoromethyl)-2,3,4,5-tetrahydro-1H-pyrido[4,3-b]indole], the inhibition at 0.1 µM came to 86% in test [1], 98% in test [2], 97% in test [3] and 87% in test [4]. In addition, the figures for the inhibition at 1 µM (at histamine receptor H1; in test [5]) were 53% and 98%, respectively.
